Reference: article PMC5449191 (Nature plants, 2016)

Assays:
CsACT = CsACT (Cucumis sativus, UniProt A0A097IYL7); assay: acetyltransferase assay, LC-MS of product; format: biochemical; settings: 400 μM acetyl-CoA, 400 μM substrate, pH 7.5, 31°C
CmACT = CmACT (Cucumis melo, UniProt A0A1S3CAV7); assay: acetyltransferase assay, LC-MS of product; format: biochemical; settings: 400 μM acetyl-CoA, 400 μM substrate, pH 7.5, 31°C

Row | SMILES | acetyltransferase assay, LC-MS of product (CsACT) | acetyltransferase assay, LC-MS of product (CmACT; product CuB) | acetyltransferase assay, LC-MS of product (CmACT)
1 | CC(C)(O)/C=C/C(=O)[C@](C)(O)[C@H]1[C@H](O)C[C@@]2(C)[C@@H]3CC=C4[C@@H](C[C@H](O)C(=O)C4(C)C)[C@]3(C)C(=O)C[C@]12C [CuD] | acylate a wide range of substrates (e.g., CuD, CuI, and deacetyl CuC) | able to acetylate the cucurbitacin precursors CuD and CuI | 
2 | CC(C)(O)/C=C/C(=O)[C@](C)(O)[C@H]1[C@H](O)C[C@@]2(C)[C@@H]3CC=C4[C@@H](CC[C@H](O)C4(C)C)[C@]3(CO)C(=O)C[C@]12C [deacetyl CuC] | acylate a wide range of substrates (e.g., CuD, CuI, and deacetyl CuC) |  | 
3 | CC(C)(O)/C=C/C(=O)[C@](C)(O)[C@H]1[C@H](O)C[C@@]2(C)[C@@H]3CC=C4[C@@H](C=C(O)C(=O)C4(C)C)[C@]3(C)C(=O)C[C@]12C [CuI] |  |  | acylate a wide range of substrates (e.g., CuD, CuI, and deacetyl CuC)
